Test results from patent US20220195056A1, “METHOD OF TREATING KELOIDS” (Icahn School of Medicine at Mount Sinai, priority 2019, published 2022).
Entries after “also recorded” stand apart in the source; their conditions may differ.

Experiments:
Assay type in all cases: in vivo, human
[1] = system: keloid; experiment: Prior treatment of keloid nodules with intralesional triamcinolone injections; settings: before dupilumab
[2] = system: keloid; experiment: Clinical keloid response to dupilumab in a subject with severe atopic dermatitis and two keloid nodules
From the text: (A) On the right popliteal fossa, a large depigmented keloid (denoted by the dotted arrow) measured at 3.5 cm horizontal, 2.8 cm vertical, and 2.1 cm, and a smaller adjacent keloid (denoted by the bold arrow) measured at 1.2 cm horizontal, 0.7 cm vertical, and 1.1 cm, August 2018. […] Images to scale and taken with different perspectives. Th2-specific inflammatory biomarkers (C-E) measured by quantitative real-time PCR in healthy skin and keloid non-lesional (NL) and lesional (LS) skin. Black stars: significance of comparison between keloid skin and controls. Black lines within boxes represent median values; bold red lines represent mean values. Each black dot represents an individual patient; ^+P<0.1, *P<0.05.
A subject afflicted with severe atopic dermatitis (AD) (body surface area/BSA 70%; SCORing of AD/SCORAD, 50; Eczema Area and Severity Index/EASI, 33) post-inflammatory hypopigmentation, and two keloid nodules was treated with dupilumab. […] Both nodules were present for more than 2 years. […] The subject received 300 mg subcutaneous dupilumab injections for severe AD, administered every 2 weeks for a month.

[3] = system: keloids; experiment: Clinical keloid response to dupilumab injections in African American keloid patients
Protocol: (A) The image depicts keloids before treatment with dupilumab in a patient. (B) The image depicts keloids in a patient after 1.5 months of treatment with dupilumab (subcutaneous injections of 300 mg every week, after 600 mg induction at baseline). (C) The image depicts keloids in the same patient at the end of the third month of treatment with dupilumab.
A subject with keloids, but without other dermatological symptoms, was treated with dupilumab. The subject received 300 mg subcutaneous dupilumab injections, administered weekly.
The inventors observed a significant keloid reduction in yet a third patient treated with dupilumab. Another patient with keloids, but no other dermatological symptoms, received weekly subcutaneous injections of dupilumab (300 mg) and observed a positive response.
In addition, only the weekly injections were sufficient to maintain the size reduction and to treat the pain and irritation associated with the keloids in the afflicted patients.

[4] = after 3 months, weekly subcutaneous 300 mg
[5] = after 3 months, weekly subcutaneous 300 mg after 600 mg induction

C[C@]12C=CC(=O)C=C1CC[C@H]1[C@@H]3C[C@@H](O)[C@](O)(C(=O)CO)[C@@]3(C)C[C@H](O)[C@@]12F [triamcinolone]
keloid response to prior intralesional treatment [1]: minimal improvement

dupilumab
outcome of the smaller adjacent keloid ([2]; after dupilumab treatment (seven months), before treatment 1.2 cm horizontal, 0.7 cm vertical, 1.1 cm): complete disappearance
larger keloid nodule size, third (unnamed) dimension, after dupilumab ([2]; post-treatment, before treatment 2.1 cm): 0.9 cm
larger keloid nodule size, vertical, after dupilumab ([2]; post-treatment, before treatment 2.8 cm): 1 cm
larger keloid nodule size, horizontal, after dupilumab ([2]; post-treatment, before treatment 3.5 cm): 1.6 cm
reduction in size of the large keloid ([2]; seven months after dupilumab treatment, 300 mg subcutaneous every 2 weeks for a month, right popliteal fossa): > 50%
change in keloid size (FIG. 3 patient) ([3]; 3 months, 300 mg subcutaneous every week after 600 mg induction at baseline): noticeable reduction in the keloid size; also recorded: reduction in size and depth
keloid shrinkage in diameter (FIG. 5 patient) [3, 4]: 0.8 cm
keloid shrinkage in height (FIG. 5 patient) [3, 4]: 0.5 cm
keloid shrinkage in diameter (FIG. 4 patient) [3, 5]: 2 cm
keloid shrinkage in height (FIG. 4 patient) [3, 5]: 0.5 cm
efficacy of every other week injections on keloids ([3]; injections every other week): insufficient to treat keloids
patients with reduction in keloid size and shape ([3]; weekly dupilumab injections, African American patients): three of the three
change in keloid size (third patient, FIG. 5) ([3]; weekly subcutaneous 300 mg): noticeable reduction in the keloid size
